In this test the target is GPR54 (Homo sapiens, UniProt Q969F8). Nature of the test: Inositol phosphate (IP) antagonism assay: inhibition of 10 nM kisspeptin-10 stimulation of IP in CHO/gpr-54 cells. The format is cell-based. Set-up: G. Vassart, Univ; Brussels. Conditions: CHO cells, 10 nM kisspeptin-10; for IC50: unit inferred, given in M. How it is done:
Inositol-3-phoshate Antagonistic Assay—Cell monolayers had 0.5 mls HEPES modified DMEM supplemented with […] for 30 mins at 37° C. to block IP3 breakdown. Cells were then stimulated with 0.25 mls 10 nM Kisspeptin-10 plus 0.25 mls of 10 nM Kisspeptin-10 or analogues (10 pM-10 uM) diluted at 1:1000 in the above media for 1 hr at 37° C., then in 10 mM Formic acid at 4° C. for 1 hr to lyse cells. Lysate was then transferred to plastic tubes containing 0.5 mls Dowex resin to bind the radioactive IP3 and the resin was then washed with 1 ml H2O. The resin was then washed with 60 mM NH4 formate/5 mM Sodium tetraborate followed by 1M NH4 formate/0.1M Formic acid to release the bound radiation. Then 800 μls of the radioactive solution were transferred to scintillation vials containing 2.5 mls scintillation fluid and radioactivity counted on a Beta counter for 60 seconds.
Chinese hamster ovary (CHO) cells stably-expressing the human gpr-54 receptor (CHO/gpr-54) were obtained from Prof. G. Vassart, Univ. Brussels. The cells were maintained in Dulbecco's modified Eagle's medium (DMEM; Sigma) supplemented with 10% fetal calf serum, 2% glutamine and 1% penicillin (10,000 units/ml)/streptomycin ([…]) at 37° C. in a humidified 5% CO2 atmosphere.
Experiments were repeated 3-5 times. IP production was plotted as mean values±SEM and analyzed using a Student's t-Test ([…]).

Molecules are shown by their SMILES. Non-standard residues stand in square brackets, D forms with d. Residues, ends and D or L forms follow the SMILES beside them.

GPR54, sequence (Q969F8 whole entry): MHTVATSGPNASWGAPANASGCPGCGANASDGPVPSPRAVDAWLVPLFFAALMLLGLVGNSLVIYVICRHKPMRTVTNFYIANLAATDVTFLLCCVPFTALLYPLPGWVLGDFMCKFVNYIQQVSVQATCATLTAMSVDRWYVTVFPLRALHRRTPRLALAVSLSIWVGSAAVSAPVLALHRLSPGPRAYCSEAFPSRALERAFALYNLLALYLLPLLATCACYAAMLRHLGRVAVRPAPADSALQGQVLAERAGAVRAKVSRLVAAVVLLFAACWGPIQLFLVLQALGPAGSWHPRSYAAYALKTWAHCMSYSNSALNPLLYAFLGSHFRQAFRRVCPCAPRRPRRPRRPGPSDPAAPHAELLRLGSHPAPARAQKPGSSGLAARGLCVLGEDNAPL

Consider `CC(=O)N[C@@H](CC(N)=O)C(=O)N[C@@H](CO)C(=O)N[C@@H](Cc1ccccc1)C(=O)NCC(=O)N[C@@H](CC(C)C)C(=O)N[C@@H](CCCNC(=N)N)C(=O)N[C@@H](Cc1ccccc1)C(N)=O` [Peptide 186] (Ac-NSFGLRF-NH2), for which the “Inhibition of IP stimulation by 10 nM Agonist: % Inhibition of Max” value (“Inhibition … % Inhibition of Max” below) was 70%.
On the same count and under the same terms, as for `CC(C)C[C@H](NC(=O)CNC(=O)[C@H](Cc1ccccc1)NC(=O)[C@H](CO)NC(=O)[C@H](CC(N)=O)NC(=O)[C@H](Cc1c[nH]c2ccccc12)NC(=O)[C@H](CC(N)=O)NC(=O)[C@@H](N)Cc1ccc(O)cc1)C(=O)N[C@@H](CCCNC(=N)N)C(=O)N[C@@H](Cc1c[nH]c2ccccc12)C(N)=O` [Peptide 187] (H-YNWNSFGLRW-NH2), the figure is 36%; as for `CC(=O)N[C@@H](Cc1ccccc1)C(=O)NCC(=O)N[C@@H](CC(C)C)C(=O)N[C@@H](CCCNC(=N)N)C(=O)N[C@@H](Cc1ccccc1)C(N)=O` [Peptide 188] (Ac-FGLRF-NH2), 74%; as for `CC(=O)N[C@@H](Cc1ccccc1)C(=O)NCC(=O)N[C@@H](CC(C)C)C(=O)N[C@@H](CCCNC(=N)N)C(=O)N[C@@H](Cc1c[nH]c2ccccc12)C(N)=O` [Peptide 189], 94%.
The IC50 is the midpoint of a concentration-inhibition curve. Higher therefore signals weaker potency. Regarding `CC(=O)N[C@@H](Cc1ccccc1)C(=O)NCC(=O)N[C@H](Cc1ccccc1)C(=O)N[C@@H](CCCNC(=N)N)C(=O)N[C@@H](Cc1c[nH]c2ccccc12)C(N)=O` [Peptide 190] (Ac-FG[dF]RW-NH2), the “Inhibition … % Inhibition of Max” value turned out to be 71% and it took 10 nM to reach half-maximal inhibition (IC50).
For the molecule `CC(=O)N[C@@H](Cc1ccccc1)C(=O)NCC(=O)N[C@H](CC(C)C)C(=O)N[C@@H](CCCNC(=N)N)C(=O)N[C@@H](Cc1c[nH]c2ccccc12)C(N)=O` [Peptide 191], the “Inhibition … % Inhibition of Max” value is 79%.
Consider `CC(=O)N[C@@H](Cc1ccccc1)C(=O)NCC(=O)N[C@@H](CC(C)C)C(=O)N[C@H](CCCNC(=N)N)C(=O)N[C@@H](Cc1c[nH]c2ccccc12)C(N)=O` [Peptide 200], for which the “Inhibition … % Inhibition of Max” value stood at 63% and the IC50 is 300 nM.
For `CC(=O)N[C@@H](Cc1ccccc1)C(=O)NCC(=O)N[C@@H](C)C(=O)N[C@@H](CCCNC(=N)N)C(=O)N[C@@H](Cc1c[nH]c2ccccc12)C(N)=O` [Peptide 201] (Ac-FGARW-NH2), in that order: 69% and 7 nM.
For `CC(=O)N[C@@H](C)C(=O)NCC(=O)N[C@@H](CC(C)C)C(=O)N[C@@H](CCCNC(=N)N)C(=O)N[C@@H](Cc1c[nH]c2ccccc12)C(N)=O` [Peptide 202] (Ac-AGLRW-NH2), in that order: 64% and 10 nM.
For `CC(=O)N[C@H](Cc1ccccc1)C(=O)N[C@@H](Cc1c[nH]c2ccccc12)C(=O)N[C@@H](CC(C)C)C(=O)N[C@@H](CCCNC(=N)N)C(=O)N[C@@H](Cc1c[nH]c2ccccc12)C(N)=O` [Peptide 203] (Ac-[dF]WLRW-NH2), in that order: 71% and 0.1 nM.
As for `CC(=O)N[C@@H](Cc1ccccc1)C(=O)NCC(=O)N[C@H](Cc1c[nH]c2ccccc12)C(=O)N[C@@H](CCCNC(=N)N)C(=O)N[C@@H](Cc1ccccc1)C(N)=O` [Peptide 206] (Ac-FG[dW]RF-NH2), the “Inhibition … % Inhibition of Max” value stood at 68% and it took 10 nM to reach half-maximal inhibition (IC50).
For `CC(C)C[C@H](NC(=O)CNC(=O)[C@H](Cc1ccccc1)NC(=O)CNC(=O)[C@H](CC(N)=O)NC(=O)[C@H](Cc1c[nH]c2ccccc12)NC(=O)[C@H](CC(N)=O)NC(=O)[C@@H](N)Cc1ccc(O)cc1)C(=O)N[C@@H](CCCNC(=N)N)C(=O)N[C@@H](Cc1ccccc1)C(N)=O` [Peptide 208] (H-YNWNGFGLRF-NH2), in that order: 55% and 1000 nM.
The corresponding values for `CC(C)C[C@@H](NC(=O)CNC(=O)[C@H](Cc1ccccc1)NC(=O)CNC(=O)[C@H](CC(N)=O)NC(=O)[C@H](Cc1c[nH]c2ccccc12)NC(=O)[C@H](CC(N)=O)NC(=O)[C@@H](N)Cc1ccc(O)cc1)C(=O)N[C@@H](CCCNC(=N)N)C(=O)N[C@@H](Cc1ccccc1)C(N)=O` [Peptide 209] (H-YNWNGFG[dL]RF-NH2) are 61% and 100 nM.
For `N=C(N)NCCC[C@H](NC(=O)[C@@H](Cc1c[nH]c2ccccc12)NC(=O)CNC(=O)[C@H](Cc1ccccc1)NC(=O)CNC(=O)[C@H](CC(N)=O)NC(=O)[C@H](Cc1c[nH]c2ccccc12)NC(=O)[C@H](CC(N)=O)NC(=O)[C@@H](N)Cc1ccc(O)cc1)C(=O)N[C@@H](Cc1ccccc1)C(N)=O` [Peptide 210] (H-YNWNGFG[dW]RF-NH2), in that order: 64% and < 0.1 nM.
Regarding `CC(C)C[C@H](NC(=O)CNC(=O)[C@@H](Cc1ccccc1)NC(=O)CNC(=O)[C@H](CC(N)=O)NC(=O)[C@H](Cc1c[nH]c2ccccc12)NC(=O)[C@H](CC(N)=O)NC(=O)[C@@H](N)Cc1ccc(O)cc1)C(=O)N[C@@H](CCCNC(=N)N)C(=O)N[C@@H](Cc1ccccc1)C(N)=O` [Peptide 211] (H-YNWNG[dF]GLRF-NH2), the “Inhibition … % Inhibition of Max” value came out at 73% and 1000 nM corresponded to half-maximal inhibition (IC50).
For `CC(C)C[C@H](NC(=O)CNC(=O)[C@@H](Cc1c[nH]c2ccccc12)NC(=O)CNC(=O)[C@H](CC(N)=O)NC(=O)[C@H](Cc1c[nH]c2ccccc12)NC(=O)[C@H](CC(N)=O)NC(=O)[C@@H](N)Cc1ccc(O)cc1)C(=O)N[C@@H](CCCNC(=N)N)C(=O)N[C@@H](Cc1ccccc1)C(N)=O` [Peptide 212] (H-YNWNG[dW]GLRF-NH2), in that order: 68% and < 0.1 nM.
The corresponding values for `CC(=O)N[C@@H](Cc1ccc(O)cc1)C(=O)N[C@@H](CC(N)=O)C(=O)N[C@@H](Cc1c[nH]c2ccccc12)C(=O)N[C@@H](CC(N)=O)C(=O)NCC(=O)N[C@@H](Cc1ccccc1)C(=O)NCC(=O)N[C@H](Cc1c[nH]c2ccccc12)C(=O)N[C@@H](CCCNC(=N)N)C(=O)N[C@@H](Cc1ccccc1)C(N)=O` [Peptide 228] (Ac-YNWNGFG[dW]RF-NH2) are 58% and 50 nM.
The corresponding values for `CC(=O)N[C@@H](Cc1ccc(O)cc1)C(=O)N[C@@H](CC(N)=O)C(=O)N[C@@H](Cc1c[nH]c2ccccc12)C(=O)N[C@@H](CC(N)=O)C(=O)N[C@H](Cc1c[nH]c2ccccc12)C(=O)N[C@@H](Cc1ccccc1)C(=O)NCC(=O)N[C@H](Cc1c[nH]c2ccccc12)C(=O)N[C@@H](CCCNC(=N)N)C(=O)N[C@@H](Cc1ccccc1)C(N)=O` [Peptide 229] (Ac-YNWN[dW]FG[dW]RF-NH2) are 68% and 8000 nM.
As for `CC(=O)N[C@@H](Cc1ccc(O)cc1)C(=O)N[C@@H](CC(N)=O)C(=O)N[C@H](Cc1c[nH]c2ccccc12)C(=O)N[C@@H](CC(N)=O)C(=O)NCC(=O)N[C@@H](Cc1ccccc1)C(=O)NCC(=O)N[C@H](Cc1c[nH]c2ccccc12)C(=O)N[C@@H](CCCNC(=N)N)C(=O)N[C@@H](Cc1ccccc1)C(N)=O` [Peptide 231] (Ac-YN[dW]NGFG[dW]RF-NH2), the “Inhibition … % Inhibition of Max” value came to 55% and half-maximal inhibition (IC50) was put at 0.1 nM.
With `CC(=O)N[C@H](Cc1ccc(O)cc1)C(=O)N[C@@H](CC(N)=O)C(=O)N[C@@H](Cc1c[nH]c2ccccc12)C(=O)N[C@@H](CC(N)=O)C(=O)NCC(=O)N[C@@H](Cc1ccccc1)C(=O)NCC(=O)N[C@@H](Cc1c[nH]c2ccccc12)C(=O)N[C@@H](CCCNC(=N)N)C(=O)N[C@@H](Cc1ccccc1)C(N)=O` [Peptide 237] (Ac-[dY]NWNGFGWRF-NH2), the “Inhibition … % Inhibition of Max” value was determined as 0%.
Still for that read-out and setting: as for `CC(=O)N[C@H](Cc1ccc(O)cc1)C(=O)N[C@@H](CC(N)=O)C(=O)N[C@@H](Cc1c[nH]c2ccccc12)C(=O)N[C@@H](CC(N)=O)C(=O)N[C@@H](CO)C(=O)N[C@@H](Cc1ccccc1)C(=O)NCC(=O)N[C@H](Cc1c[nH]c2ccccc12)C(=O)N[C@@H](CCCNC(=N)N)C(=O)N[C@@H](Cc1ccccc1)C(N)=O` [Peptide 238] (Ac-[dY]NWNSFG[dW]RF-NH2), the figure is 0%; as for `CC(=O)N[C@H](Cc1ccc(O)cc1)C(=O)N[C@H](CC(N)=O)C(=O)N[C@@H](Cc1c[nH]c2ccccc12)C(=O)N[C@@H](CC(N)=O)C(=O)N[C@@H](CO)C(=O)N[C@@H](Cc1ccccc1)C(=O)NCC(=O)N[C@@H](Cc1c[nH]c2ccccc12)C(=O)N[C@@H](CCCNC(=N)N)C(=O)N[C@@H](Cc1ccccc1)C(N)=O` [Peptide 239] (Ac-[dY][dN]WNSFGWRF-NH2), 0%.
As for `CC(=O)N[C@H](Cc1c[nH]c2ccccc12)C(=O)N[C@@H](CC(N)=O)C(=O)N[C@@H](Cc1c[nH]c2ccccc12)C(=O)N[C@@H](CC(N)=O)C(=O)NCC(=O)N[C@@H](Cc1ccccc1)C(=O)NCC(=O)N[C@H](Cc1c[nH]c2ccccc12)C(=O)N[C@@H](CCCNC(=N)N)C(=O)N[C@@H](Cc1ccccc1)C(N)=O` [Peptide 243] (Ac-[dW]NWNGFG[dW]RF-NH2), the “Inhibition … % Inhibition of Max” value turned out to be 55% and half-maximal inhibition (IC50) required 10 nM.

Values taken from patent publication US8916681B2, “Compound, use and method” (Medical Research Council, priority 2007, dated 2014).
